Assay results reported in patent US9840478B2 (MERCK SHARP & DOHME CORP., priority 2013, dated 2017).
Like-named read-outs stand apart in the source and are kept apart here.

Tested on: HIV-1 (H9IIIB strain)
Test: Cell-based HIV infection assay using a reporter (Cell-Based), MT4-GFP cells
Details: 50% normal human serum, mean of at least two independent experiments, read-out: Cell-based IP
Summary of the method: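 MT4-GFP cells (HIV LTR-driven GFP) infected 24 h with HIV-1 H9IIIB at low MOI, then washed and plated with compounds in RPMI + 50% normal human serum, 0.4% DMSO final. Green cells counted at 24 and 48 h; R0 = 48 h/24 h ratio, inhibition normalized to DMSO and triple-drug control; IC50 from 4-parameter fit.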

[1] = Human immunodeficiency virus 1, MT4-GFP cells infected with HIV-1 H9IIIB
[2] = MT4-GFP cells infected with HIV-1 H9IIIB

SMILES	IC50 [1] [nM]	IC50 [2] [nM]
CC(C)[C@H](c1ccc(Cl)cc1)[C@H](N)C(=O)Nc1cncc(F)c1CC[C@H]1CNC[C@@H](C)N1S(=O)(=O)c1ccccc1 [Example 254, (βR)-4-chloro-N-(5-fluoro-4-{2-[(2S,6R)-6-methyl-1-(phenylsulfonyl)piperazin-2-yl]ethyl}pyridin-3-yl)-β-(1-methylethyl)-L-phenylalaninamide]	16	
C[C@@H]1CNC[C@H](CCc2c(F)cccc2NC(=O)[C@@H](N)[C@@H](c2ccc(F)cc2)c2cc(F)cc(F)c2)N1S(=O)(=O)c1ccc(OC(F)(F)F)cc1 [Example 255, (βS)-β-(3,5-difluorophenyl)-4-fluoro-N-(3-fluoro-2-{2-[(2S,6R)-6-methyl-1-{[4-(trifluoromethoxy)phenyl]sulfonyl}piperazin-2-yl]ethyl}phenyl)-L-phenylalaninamide]	59	
CC(C)OCC1CNC[C@H](CCc2c(F)cccc2NC(=O)[C@@H](N)[C@@H](c2ccc(F)cc2)c2cc(F)cc(F)c2)N1S(=O)(=O)C1CC1 (stereo partly drawn) [Example 256, (βS)-N-[2-(2-{(2S)-1-(cyclopropylsulfonyl)-6-[(1-methylethoxy)methyl]piperazin-2-yl}ethyl)-3-fluorophenyl]-β-(3,5-difluorophenyl)-4-fluoro-L-phenylalaninamide]		73
COC(=O)N[C@H](C(=O)Nc1cccc(F)c1CC[C@H]1CNC[C@@H](C)N1S(=O)(=O)C1CC1)[C@@H](c1ccc(F)cc1)c1cc(F)cc(F)c1 [Example 257, (βS)-N-(2-{2-[(2S,6R)-1-(cyclopropylsulfonyl)-6-methylpiperazin-2-yl]ethyl}-3-fluorophenyl)-β-(3,5-difluorophenyl)-4-fluoro-Nα-(methoxycarbonyl)-L-phenylalaninamide]	27	
C[C@H]1CNC[C@H](CCc2c(F)cccc2NC(=O)[C@@H](N)[C@@H](c2ccc(F)cc2)c2cc(F)cc(F)c2)N1S(C)(=O)=O [Example 258, (βS)-β-(3,5-difluorophenyl)-4-fluoro-N-(3-fluoro-2-{2-[(2S,6S)-6-methyl-1-(methylsulfonyl)piperazin-2-yl]ethyl}phenyl)-L-phenylalaninamide]	31	
COC(=O)N[C@H](C(=O)Nc1cccc(F)c1CC[C@H]1CNC[C@H](C)N1S(C)(=O)=O)[C@@H](c1ccc(F)cc1)c1cc(F)cc(F)c1 [Example 259, (βS)-β-(3,5-difluorophenyl)-4-fluoro-N-(3-fluoro-2-{2-[(2S,6S)-6-methyl-1-(methylsulfonyl)piperazin-2-yl]ethyl}phenyl)-Nα-(methoxycarbonyl)-L-phenylalaninamide]		18
COCC1CNC[C@H](CCc2c(F)cccc2NC(=O)[C@@H](N)[C@@H](c2ccc(Cl)cc2)C2CCOCC2)N1S(C)(=O)=O (stereo partly drawn) [Example 260, (βR)-4-chloro-N-(3-fluoro-2-{2-[(2S)-6-(methoxymethyl)-1-(methylsulfonyl)piperazin-2-yl]ethyl}phenyl)-β-(tetrahydro-2H-pyran-4-yl)-L-phenylalaninamide]		140
C[C@@H]1CNC[C@H](CCc2c(F)cccc2NC(=O)[C@@H](N)[C@H](c2cncc(F)c2)c2cccc(Cl)c2)N1S(=O)(=O)c1ccccc1 [Example 261, (βS)-3-chloro-N-(3-fluoro-2-{2-[(2S,6R)-6-methyl-1-(phenylsulfonyl)piperazin-2-yl]ethyl}phenyl)-β-(5-fluoropyridin-3-yl)-L-phenylalaninamide]	70	
CC[C@H]1CNC[C@H](CCc2c(F)cccc2NC(=O)[C@@H](N)[C@@H](c2ccc(F)cc2)c2cc(F)cc(F)c2)N1S(C)(=O)=O [Example 262, (βS)-β-(3,5-difluorophenyl)-N-(2-{2-[(2S,6S)-6-ethyl-1-(methylsulfonyl)piperazin-2-yl]ethyl}-3-fluorophenyl)-4-fluoro-L-phenylalaninamide]	25	
CC[C@@H]1CNC[C@H](CCc2c(F)cccc2NC(=O)[C@@H](N)[C@@H](c2ccc(F)cc2)c2cc(F)cc(F)c2)N1S(C)(=O)=O [Example 263, (βS)-β-(3,5-difluorophenyl)-N-(2-{2-[(2S,6R)-6-ethyl-1-(methylsulfonyl)piperazin-2-yl]ethyl}-3-fluorophenyl)-4-fluoro-L-phenylalaninamide]	77	
C[C@@H]1CNC[C@H](CCc2c(F)cccc2NC(=O)[C@@H](N)[C@@H](c2ccc(Cl)cc2)C2CCOCC2)N1S(=O)(=O)c1ccc(C(F)F)cc1 [Example 264, (βR)-4-chloro-N-(2-{2-[(2S,6R)-1-{[4-(difluoromethyl)phenyl]sulfonyl}-6-methylpiperazin-2-yl]ethyl}-3-fluorophenyl)-β-(tetrahydro-2H-pyran-4-yl)-L-phenylalaninamide]	69	
CC[C@@H]1CNC[C@H](CCc2c(F)cccc2NC(=O)[C@@H](N)[C@@H](c2ccc(Cl)cc2)C2CCOCC2)N1S(C)(=O)=O [Example 265, (βR)-4-chloro-N-(2-{2-[(2S,6R)-6-ethyl-1-(methylsulfonyl)piperazin-2-yl]ethyl}-3-fluorophenyl)-β-(tetrahydro-2H-pyran-4-yl)-L-phenylalaninamide]	260	
COC(=O)NC(C(=O)Nc1cccc(F)c1CC[C@H]1CNC[C@@H](C)N1S(=O)(=O)c1ccc(C(F)F)cc1)[C@@H](c1ccc(Cl)cc1)C1CCOCC1 (some centres unmarked) [Example 266]	26	
CC[C@@H]1CNC[C@H](CCc2c(F)cccc2NC(=O)[C@@H](NC(=O)OC)[C@@H](c2ccc(Cl)cc2)C2CCOCC2)N1S(=O)(=O)c1ccccc1 [Example 267, methyl ((1R,2S)-1-(4-chlorophenyl)-3-((2-(2-((2S,6R)-6-ethyl-1-(phenylsulfonyl)piperazin-2-yl)ethyl)-3-fluorophenyl)amino)-3-oxo-1-(tetrahydro-2H-pyran-4-yl)propan-2-yl)carbamate]	24	
CC[C@H]1CNC[C@H](CCc2c(F)cccc2NC(=O)[C@@H](NC(=O)OC)[C@@H](c2ccc(Cl)cc2)C2CCOCC2)N1S(=O)(=O)c1ccccc1 [Example 268, methyl ((1R,2S)-1-(4-chlorophenyl)-3-((2-(2-((2S,6S)-6-ethyl-1-(phenylsulfonyl)piperazin-2-yl)ethyl)-3-fluorophenyl)amino)-3-oxo-1-(tetrahydro-2H-pyran-4-yl)propan-2-yl) carbamate]	14	
CC[C@H]1CNC[C@H](CCc2c(F)cccc2NC(=O)[C@@H](NC(=O)OC)[C@@H](c2ccc(F)cc2)c2cc(F)cc(F)c2)N1S(C)(=O)=O [Example 269, (βS)-β-(3,5-difluorophenyl)-N-(2-{2-[(2S,6S)-6-ethyl-1-(methylsulfonyl)piperazin-2-yl]ethyl}-3-fluorophenyl)-4-fluoro-Nα-(methoxycarbonyl)-L-phenylalaninamide]	9.9	
CC[C@@H]1CNC[C@H](CCc2c(F)cccc2NC(=O)[C@@H](NC(=O)OC)[C@@H](c2ccc(F)cc2)c2cc(F)cc(F)c2)N1S(C)(=O)=O [Example 270, (βS)-β-(3,5-difluorophenyl)-N-(2-{2-[(2S,6R)-6-ethyl-1-(methylsulfonyl)piperazin-2-yl]ethyl}-3-fluorophenyl)-4-fluoro-Nα-(methoxycarbonyl)-L-phenylalaninamide]	24	
CC(C)[C@H](c1ccc(Cl)cc1)[C@H](N)C(=O)Nc1cccc(F)c1CC[C@H]1CNC[C@H](C)N1S(=O)(=O)c1ccccc1Cl [Example 271, (βR)-4-chloro-N-[2-(2-{(2S,6S)-1-[(2-chlorophenyl)sulfonyl]-6-methylpiperazin-2-yl}ethyl)-3-fluorophenyl]-β-(1-methylethyl)-L-phenylalaninamide]	1200	
COC(=O)N[C@H](C(=O)Nc1cncc(F)c1CC[C@H]1CNC[C@H](C)N1S(=O)(=O)c1ccccc1Cl)[C@@H](c1ccc(F)cc1)c1cc(F)cc(F)c1 [Example 272, (βS)-N-[4-(2-{(2S,6S)-1-[(2-chlorophenyl)sulfonyl]-6-methylpiperazin-2-yl}ethyl)-5-fluoropyridin-3-yl]-β-(3,5-difluorophenyl)-4-fluoro-Nα-(methoxycarbonyl)-L-phenylalaninamide]	49	
C[C@H]1CNC[C@H](CCc2c(F)cncc2NC(=O)[C@@H](N)[C@@H](c2ccc(Cl)cc2)C2CCOCC2)N1S(=O)(=O)c1ccc(Cl)cc1 [Example 273, (βR)-4-chloro-N-[4-(2-{(2S,6S)-1-[(4-chlorophenyl)sulfonyl]-6-methylpiperazin-2-yl}ethyl)-5-fluoropyridin-3-yl]-β-(tetrahydro-2H-pyran-4-yl)-L-phenylalaninamide]	11	
COC(=O)N[C@H](C(=O)Nc1cncc(F)c1CC[C@H]1CNC[C@H](C)N1S(=O)(=O)c1ccccc1)[C@@H](c1ccc(Cl)cc1)C1CCOCC1 [Example 274, (βR)-4-chloro-N-(5-fluoro-4-{2-[(2S,6S)-6-methyl-1-(phenylsulfonyl)piperazin-2-yl]ethyl}pyridin-3-yl)-Nα-(methoxycarbonyl)-β-(tetrahydro-2H-pyran-4-yl)-L-phenylalaninamide]	22	
COC(=O)N[C@H](C(=O)Nc1cccc(F)c1CC[C@H]1CNC[C@@H](C)N1S(=O)(=O)c1ccccc1)C1(c2ccc(Cl)cc2)CCOCC1 [Example 275, methyl {(1S)-1-[4-(4-chlorophenyl)tetrahydro-2H-pyran-4-yl]-2-[(3-fluoro-2-{2-[(2S,6R)-6-methyl-1-(phenylsulfonyl)piperazin-2-yl]ethyl}phenyl)amino]-2-oxoethyl}carbamate]	19	
COC(=O)N[C@H](C(=O)Nc1cccc(F)c1CC[C@H]1CNC[C@H](C)N1S(=O)(=O)c1ccccc1)C1(c2ccc(Cl)cc2)CCOCC1 [Example 276, methyl {(1S)-1-[4-(4-chlorophenyl)tetrahydro-2H-pyran-4-yl]-2-[(3-fluoro-2-{2-[(2S,6S)-6-methyl-1-(phenylsulfonyl)piperazin-2-yl]ethyl}phenyl)amino]-2-oxoethyl}carbamate]	9.1	
